Each structure is given as a SMILES string. Where two headings read alike, the source gives them in different places. A value given as a limit tells only on which side of the number the result lay.

One data set addresses T1, ABL1 T315I (Homo sapiens, UniProt P00519, T315I).
T1 construct: The ABL1 variant polypeptides utilized contained the same polypeptide as the “isoahABL1(wt)” polypeptide except that each contained one corresponding amino acid substitution
Description: Z′-LYTE assay, ABL1 T315I. In kind it is biochemical. The text has this:
(§1) This Example describes a cell-free assay utilized to identify candidate compounds that bind to and inhibit protein kinase (PK) and PK variants. One assay is referred to as a “Z′-LYTE assay” and is an example of a labeled peptide cleavage assay. The fluorescence-based assay relies on the differential sensitivity of a small, dual-end-labelled peptide to cleavage by a protease, dependent on the phosphorylation state of the peptide (FIG. 1). The peptide substrate is end-labelled with two distinct fluorophores that comprise a Fluorescence Resonance Energy Transfer (FRET) pair.
(§2) In the absence of inhibitor, the kinase transfers the gamma-phosphate from ATP to the single, unique tyrosine, serine or threonine in the synthetic FRET peptide. The reaction conditions are titrated such that 10-40% of the peptide substrate is phosphorylated. In a second reaction, a site-specific protease that only recognizes and cleaves the non-phosphorylated FRET peptide is added. Cleavage interferes with FRET between the donor (i.e., coumarin) and the acceptor (i.e., fluorescein) fluorophores on the FRET-peptide substrate, unlike the phosphorylated, uncleaved peptide.
(§3) The Test Compounds are screened in 1% DMSO (final) in the well.
(§4) All Peptide/Kinase Mixtures are diluted to a 2× working concentration in the appropriate Kinase Buffer. The 2×ABL1 polypeptide/Tyr 02 substrate peptide mixture is prepared in 50 mM HEPES pH 7.5, 0.01% BRIJ-35, 10 mM MgCl2, 1 mM EGTA. The final 10 μL Kinase Reaction contains 0.3-1.2 ng ABL1 (or 1.36-6 ng ABL1(T315I)) and 2 μM Tyr 02 in 50 mM HEPES, pH 7.5, 0.01% BRIJ-35, 10 mM MgCl2, 1 mM EGTA. After the 1-hour Kinase Reaction incubation, 5 μL of a 1:128 dilution of Development Reagent A is added. The ABL1(wt) polypeptide utilized for the assay described in this Example was the “isoahABL1(wt)” polypeptide described herein (SEQ ID NO:4), which is referred to as “ABL1” in Table 1 and “ABL1(wt)” or “WT” in Table 3 of this Example. The ABL1 variant polypeptides utilized contained the same polypeptide as the “isoahABL1(wt)” polypeptide except that each contained one corresponding amino acid substitution chosen from E255K, F317I, F317L, G250E, T315I or Y253F. […]
(§5) All ATP Solutions are diluted to a 4× working concentration in Kinase Buffer (50 mM HEPES, pH 7.5, 0.01% BRIJ-35, 10 mM MgCl2, 1 mM EGTA). The ATP Km apparent (Km app) is previously determined using a Z′-LYTE assay.
(§6) Bar-coded Corning, low volume NBS, black 384-well plate (Corning Cat. #4514) • 1. […] Read on fluorescence plate reader and analyze the data

A further data set concerns the target ABL1(wt) (Homo sapiens, UniProt P00519). Put plainly: Z′-LYTE assay (labeled peptide cleavage), ABL1(wt). In kind it is biochemical.
Excerpt: as §1, §2, §3, §4, §5, §6
A known inhibitor control standard curve, 10-point titration, is run for each individual kinase on the same plate as the kinase to ensure the kinase is inhibited within an expected IC50 range previously determined. […]

In the next data set the test system is K562. Put plainly: In vitro cytotoxic activity (CellTiterGlo), K562 (CML). The following applies: Homo sapiens, 48-hours, read-out: K562 LD50. In kind it is cell-based. On the procedure: (§7) Non-metabolized targeted toxicity, or general toxicity, of compounds was assessed by treating a panel of selected cell lines in culture with a dilution series of test compounds and the lethal dose that will kill half of the cells (i.e., the LD50) was determined. Compounds herein were assayed against a panel of cytokine-independent Philadelphia chromosome (BCR-ABL1 translocation) positive (Ph+) leukemia and lymphoma cell lines along with several control cell lines that were ABL1-independent. The panel included murine cell lines BaF3-wildtype (wt), BaF3-mutants (BaF3-wt cells engineered to be reliant on various kinase domain mutations with the BCR-ABL1 fusion protein), and various ALL and CML human cell lines, including SD-1, TOM-1, NALM-21, K562, Jeko-1, BV173, and KCL-22.
(§8) To test the cytotoxic activity of compounds herein, 1.6E4 cells were plated in 96-well plates at a final volume of 135 μL per well. Compounds were then added to the wells. In general, final concentrations of compounds started at a maximum concentration of […] and were diluted by half-log concentrations down to a final concentration of 0.316 nM. However, different cell lines required varying drug concentration ranges for optimal LD50 calculations. To create half-log dilutions, 40 mM DMSO solutions of compounds were diluted in half-log iterations to generate 400× starting concentration of compounds in DMSO. The 400× compound solutions were then diluted by 40-fold by adding 5 μL of 400× DMSO stock to 195 μL cell culture media, generating 10× drug concentrations in cell culture media. Then 15 μL of the 10× drug solutions were added to the 135 μL volume of cell suspension, resulting in 1× final drug concentrations with 0.25% DMSO in all wells. 48-hours after adding compounds, cells were measured for relative viability to generate cytotoxicity curves associated with the varying concentrations of compounds. […] LD50 values were measured by normalizing luminescence intensity to the lowest drug concentration. GraphPad Prism was used to plot and calculate LD50 values from the cytotoxic kill curves. Curves were fit to a non-linear regression model, with compound concentration vs. response and variable slope (four parameters).
(In general: ATP-based viability assays read luminescence as a measure of living cells.)

For another data set, the system named is NALM-21. Description: In vitro cytotoxic activity (CellTiterGlo), NALM-21 (ALL). In kind it is cell-based. The note with it: Homo sapiens; 48-hours; read-out: NALM-21 LD50. As for the experimental part: as §7, §8
Data set [1] in a line: non-GLP multi-dose toxicity study (dose escalation, daily IP injection). The following applies: mice; for tolerability: daily IP. In kind it is in vivo, mouse (6-week-old Balb/c females). As for the experimental part: An initial non-GLP multi-dose toxicity study of Cmpd11 and Cmpd66 was performed, which included a comparison to COM1 and COM3 clinical compounds. […] Body weights were recorded 2× weekly for healthy mice followed by weekly in the recovery phase. Blood draws were taken, retro-orbitally, every other week (for a total of three blood draws per group) to determine the plasma levels of compounds throughout the duration of the study (unless mice were euthanized prior to completion of the 28-day dosing period). […] Any animals showing more than 9% weight loss were weighed every day and animals were euthanized after a weight loss of 15% or more or evidence of high distress (e.g., listless, hunched posture, high grimace score). Also, plasma samples were drawn at euthanasia. Control groups included vehicle only and no manipulation.
A summary of the study is illustrated in FIG. 14. There are six groups with 90 mice total and following is an overview of groups for the study.
The following are criteria for dose escalation and staggering of group starting points. Animals in each group are monitored after the initial dose for 3-4 days, and if there is no observed dose-limiting toxicity (DLT), then a separate cohort of naïve animals are administered the next higher dose level. Note that each cohort of animals receives the same drug and drug dose for the duration of the 28-day dosing period unless euthanasia is required. Animals in the second, dose-escalated group, are then monitored for 3-4 days, and if there is no observed DLT, animals from a fresh cohort are administered the next higher dose level, while continuing with the former cohorts up to 5 dose levels total. Animals in each cohort then are monitored after the third dose for 7 days, and if there is no observed DLT, then animals are administered the next higher doses. If DLT is observed during a monitoring period for any dose level, a subsequent dose is reduced by a level that is intermediate between the highest tolerated level tested and the minimum toxic level tested.

Consider `CNC(=O)c1ccc(C(=O)Nc2cc(Nc3ncc4cccc(-c5ccc(F)cc5OC(C)C)c4n3)ccc2C)cc1` [Cmpd10], for which the IC50 is under 20 nM on ABL1 T315I (class by IC50 values in Table 5, read-out: inhibitor class of ABL(T315I) according to IC50); 3.86 nM on ABL1 T315I (test compounds, Z′-LYTE, read-out: IC50 values for test compounds, ABL1(T315I)); under 20 nM at ABL1(wt) (class by IC50 values in Table 5, read-out: inhibitor class of ABL1(wt) according to IC50); 11.2 nM at ABL1(wt) (test compounds, Z′-LYTE, read-out: IC50 values for test compounds, ABL1(wt)).
Turning to `Cc1ccc(C(=O)Nc2ccc(CN3CCN(C)CC3)c(C(F)(F)F)c2)cc1C#Cc1cnc2cccnn12` [ponatinib], the values for the IC50 in the data set with K562 and in the data set with NALM-21 were 3250 nM and 3600 nM, respectively.
As for `Cc1ccc(Nc2ncc3cccc(-c4ccc(F)cc4OC(C)C)c3n2)cc1NC(=O)C1CCN(C)CC1` [Cmpd66, N-(5-((8-(4-fluoro-2-isopropoxyphenyl)quinazolin-2-yl)amino)-2-methylphenyl)-1-methylpiperidine-4-carboxamide], the “tolerability relative to COM1” value in data set [1] (at doses required to reach the in vitro K562-Luc EC50 plasma levels in vivo, early results) is listed as “more tolerable than COM1”. Also, the tolerability result in data set [1] (1.5 mg/kg, through day 24) is “well tolerated”; in data set [1] (4.5 mg/kg, at day 21) it was “well tolerated”; in data set [1] (maximum dose of 18 mg/kg, at day 14), “well tolerated”. For the same compound, the IC50 with K562 was determined as 141 nM; with NALM-21, 133 nM.
Consider `Cc1ccc(Nc2ncc3cccc(-c4ccc(F)cc4OC(C)C)c3n2)cc1NC(=O)CN1CCN(C)CC1` [Cmpd58, N-(5-((8-(4-fluoro-2-isopropoxyphenyl)quinazolin-2-yl)amino)-2-methylphenyl)-2-(4-methylpiperazin-1-yl)acetamide], for which the IC50 in the data set with K562 is 124 nM; in the data set with NALM-21, 134 nM.
For `Cc1ccc(Nc2ncc3cccc(-c4ccc(F)cc4OC(C)C)c3n2)cc1NC(=O)c1ccc(C(=O)N2CCN(C)CC2)cc1` [Cmpd44, N-(5-((8-(4-fluoro-2-isopropoxyphenyl)quinazolin-2-yl)amino)-2-methylphenyl)-4-(4-methylpiperazine-1-carbonyl)benzamide] the same measures were 300 nM and 281 nM.

Values taken from patent US20260297035A1, “PROTEIN KINASE INHIBITORS AND USES THEREOF” (DELiver Therapeutics, Inc., priority 2023, published 2026).
